Measured values published in patent US11746103B2, “ALK-5 inhibitors and uses thereof” (Sumitomo Pharma Oncology, Inc., priority 2020, dated 2023).

How the values were obtained:
[1] = system: human CD4+CD45RA+ naïve T cells; assay: In vitro Treg differentiation study; assay type: cell-based; conditions: CD3/CD28+IL2+TGFβ, 5 days
Experimental: The effect of EX-11 on Treg differentiation was evaluated using human CD4^+CD45RA^+ naïve T cells from Lonza. CD4^+/CD45RA^+ naïve T cells were treated with EX-11, CD3/CD28 ([…] Technologies) and 10 ng/ml of IL-2 (Thermo Fisher Scientific) with or without 5 ng/ml TGFβ (R&D Systems) in ImmunoCult™-XF T cell expansion medium for 5 days. Flow cytometry was performed using anti-human FoxP3 staining kit (BD biosciences) to evaluate the frequency of CD4^+CD25^+Foxp3^+ Treg cells.

[2] = system: p-SMAD2 (Ser465/Ser467) in A549 xenograft; assay: Longitudinal PK/PD analysis of p-SMAD2 in A549 xenograft mouse model (PD); assay type: in vivo; conditions: 75 mg/kg single oral dose; for inhibition at 75 mg/kg: Mus musculus, A549, 4 hours post drug administration, read-out: inhibition of p-SMAD2 compared to the vehicle group
Experimental: In this study, p-SMAD2 (Ser465/Ser467) and a housekeeping gene (GAPDH) were measured at six timepoints from zero (established using vehicle-treated animals) up to twenty-four hours post dose for a single drug dose of seventy-five milligrams per kilogram per subject (three subjects per dosing group).
For this study, xenografts were prepared and implanted in mice as follows. At five weeks of age, female athymic nude mice (purchased from Charles River) were injected with approximately 3.2 million A549 cells (ATCC, CCL-185). Cells were harvested and resuspended in plain RPMI media (no phenol red added) and Matrigel (Corning 356237) at a one-to-one ratio, and two hundred-microliters of the cell suspension were injected into the right hind flank of each mouse. Tumors were measured every three days by caliper, and as tumors reached an average of ninety millimeters cubed, mice were randomized in groups of three. Each of the test compounds (Ex-10 and Ex-11) was resuspended in 1-methyl-2-pyrrolidinone (Sigma, 494496) (10%) plus 20% Solutol (Sigma 42966) in water (90%). The drug suspensions were sonicated for fifteen minutes to generate a fine particle suspension before being given to the test subjects. Subjects were dosed (per oral gavage) with the suspension. A vehicle control group with three mice was used to establish the baseline and timepoint zero of phospho-SMAD-2 in the tumor xenograft. The test compounds were administered to the respective subject groups at seventy-five milligrams per kilogram. Samples were obtained post administration of test compounds at 20 minutes, one hour, two hours, four hours, and twenty-four hours. Tumors were harvested, snap frozen and stored at negative eighty degrees Celsius until further processing. Plasma was collected from all animals by collecting whole blood via cardiac puncture, followed by centrifugation in tubes containing EDTA (BD, microtainer tubes, 365974). A group of three mice receiving vehicle only served as the zero timepoint for both drug groups. The phospho-SMAD-2 levels were determined using the Bio-Plex Pro™ Phospho-Smad2 (Ser465/Ser467) Set (BioRad 171V50019M). The phospho-SMAD-2 levels were normalized to GAPDH (MILLIPLEX MAP GAPDH Total Magnetic Bead MAPmate™, Millipore 46-667MAG) levels from each sample. All analytes were analyzed in a multiplex fashion with the Bio-Plex Pro Cell Signaling Reagent Kit (BioRad 171304006M). Frozen tumor samples (fifteen to thirty milligrams) were lysed in 100 μl lysis buffer, processed in a bead mill tube, and centrifuged. The resulting lysate was used at 1:50 dilution for the assay according to the manufacturer's instructions. Bead suspension was analyzed using the Luminex system (MAGPIX).

KGN cells (FOXL2 C134W) = assay: FOXL2 cell viability assay (Cell Titer Glo), KGN; assay type: cell-based, human
Experimental: (§1) EX-11 was submitted to a cell viability assay in KGN and COV434 cell lines. KGN cells are derived from FOXL2^C134W AGCT of a person with a recurrent metastatic GCT. COV434 cells are derived from FOXL2WT JGCT of a person with a recurrent metastatic GCT. The cells were seeded in triplicate in 96 well culture plates and treated with nine, 3-fold dilutions of EX-11 or DMSO for 6 days (KGN) or 3 days (Cov434), which represented 3 cell doublings, respectively. Viability was assessed by Cell Titer Glo (Promega).

[3] = system: COV434 cells (wild-type FOXL2); assay: FOXL2 cell viability assay (Cell Titer Glo), COV434; assay type: cell-based; conditions: Homo sapiens, 72 h, 3 days
Experimental: as §1

[4] = system: cancer associated fibroblast (CAF) genes in human primary dermal fibroblasts; assay: CAF gene suppression assay (qPCR); assay type: cell-based
Experimental: Human primary dermal fibroblasts (ATCC) were divided into four groups: DMSO-TGFβ, DMSO+TGFβ (1 ng/mL), 30 nM EX-11+TGFβ (1 ng/mL), and 300 nM EX-11+TGFβ (1 ng/mL). Cells were treated for 24 hours, then mRNA was extracted, quantified, and reverse transcribed. qPCR was run for the following cancer associated fibroblast (CAF) genes: ACTA2, FAP, ITGB1, CD9, TAGLN, ANTXR1, SOC1, Lamp5, Col1A2, and TGFβ1, using the TaqMan system in a Quant Studio.

4T1-luc tumors = assay: 4T1 syngeneic TNBC model; assay type: in vivo, mouse
Experimental: Tumor measurements were performed via digital calipers.
The vehicle for anti-PD-1 inhibitor was PBS.
The study dosing phase was 21 days. At the end of the study, animals were injected with luciferin, then sacrificed. Ex vivo imaging of the lung and liver tissue was performed to assess metastasis.

[5] = system: HLA class I expression in KGN cells; assay: HLA expression in KGN cell line (flow cytometry); assay type: cell-based, human; conditions: 72 hours
Experimental: KGN cells were treated with 30 nM EX-11, 300 nM EX-11 or DMSO in the absence or presence of 1 ng/mL TGFβ for 72 hours. Cells were then washed, collected and incubated in the dark at 4° C. for 1 hour with a pan HLA class I antibody conjugated to PE (BD Pharmingen cat #560168). The cells were washed and analyzed by flow cytometry on an Attune N×T.

EMT6 tumors [6] = assay: Combination of EX-11 and abraxane in EMT6 TNBC syngeneic model; assay type: in vivo, mouse; conditions: abraxane 30 mg/kg IP Q7d; EX-11 150 mg/kg PO BID
Excerpt: Abraxane (product of Bristol Myers Squibb) was purchased from St Josef Hospital (Freiburg, Germany). The vehicle for abraxane was 0.9% NaCl.

EMT6 tumors [7] = assay: EMT6 syngeneic TNBC model
Experimental: The objective of this study was to evaluate preclinically the in vivo therapeutic efficacy of combining EX-11 with anti-PD-L1 and/or anti-PD-1 therapy for the treatment of EMT6 tumors orthotopically implanted in the mammary fat pad of female Balb/C mice.
Balb/C mice (aged 7-9 weeks) were inoculated orthotopically in the right mammary fat pad with EMT6 breast cancer cells (2.5×10^5) in 0.1 ml of PBS. Tumor measurements were performed via digital calipers. Once the mean tumor size reached approximately 85 mm^3 (day 11), 120 mice were randomized to 8 treatment arms (15 mice per arm).
The anti-PD-L1 inhibitor used in this study was a product of BioXcell (Cat #: BE0101, Clone #: 10F.9G2). The vehicle for the anti-PD-L1 inhibitor was PBS. The anti-PD-1 inhibitor used in this study was a product of BioXcell (Cat #: BE0146, Clone #: RMP1-14). The vehicle for the anti-PD-1 inhibitor was PBS. These inhibitors were injected intraperitoneally (i.p.), bi-weekly (BIW) for 3 weeks. The vehicle for EX-11 was NMP (10%)+20% Solutol in WFI (Water for Injection) (90%). The vehicle used for EX-11 was also used for the “Vehicle” arm of the study. EX-11 and the vehicle were delivered via oral gavage (p.o.), bi-daily (BID) for 21 days.
Body weights and tumor volumes were measured twice per week. Tumor volumes were measured in two dimensions using a caliper, and the volume was expressed in mm^3 using the formula: V=(L×W×W)/2, where V is tumor volume, L is tumor length (the longest tumor dimension) and W is tumor width (the longest tumor dimension perpendicular to L). Tumor Growth Inhibition (TGI) reported was TGI at the final study day, and is expressed as Mean % Δ Inhibition and was calculated using the following formula: [(C−C0)−(T−T0)/(C−C0)]*100%, where C refers to the tumor volume of the vehicle on the final study day, C0 to the tumor volume of the vehicle on the first day of dosing, T to the tumor volume of the treatment on a specific day of dosing and T0 to the tumor volume of the treatment group on the first day of dosing.
The first phase of the study was the dosing phase and was terminated at day 21, where 3 animals were sacrificed, and plasma and tumor samples were collected for biomarker analysis. The remaining 12 animals were monitored without dosing to determine mean survival.

Cloudman S91 melanoma = Cloudman S91 melanoma syngeneic study; conditions: single agents
Experimental: The objective of this study was to evaluate preclinically the in vivo therapeutic efficacy of EX-11+/−anti-PD-1 therapy for the treatment of subcutaneous Cloudman S91 melanoma model in DBA/2 mice.
Female, DBA/2 mice (aged 7-9 weeks) were inoculated subcutaneously in the right flank region with Cloudman S91 melanoma cells (2×10^5) in 0.1 ml of PBS. Once the mean tumor size reached approximately 100 mm^3 (day 19), 60 mice were randomized to 6 treatment arms (10 mice per arm).
The anti-PD-1 inhibitor used in this study was a product of Crownbio/OEM (Cat #: CVP033, Lot #: 0920L765). The vehicle for the anti-BD-1 inhibitor was PBS. The drug was injected intraperitoneally (i.p.), bi-weekly (BIW) for 3 weeks. The vehicle for EX-11 was 1000 tween-20, 900% ddH2O. The vehicle used for EX-11 was also used for the “Vehicle” arm of the study. EX-11 and the vehicle were delivered via oral gavage (p.o.), bi-daily (BID) for 21 days.
Body weights and tumor volumes were measured 3 times per week. Tumor volumes were measured in two dimensions using a caliper, and the volume was expressed in mm^3 using the formula: V=(L×W×W)/2, where V is tumor volume, L is tumor length (the longest tumor dimension) and W is tumor width (the longest tumor dimension perpendicular to L).
The study was terminated 50 days post-inoculation. […]

[8] = EX-11 at 75 mg/kg PO BID x 21 days
[9] = EX-11 at 150 mg/kg PO BID x 21 days

## Cc1cccc2c(Nc3ccnc(Nc4cccc(N5CCOCC5)c4)n3)cnnc12 [EX-11, N4-(8-methylcinnolin-4-yl)-N2-(3-morpholinophenyl)pyrimidine-2,4-diamine]
[1]; 30 nM
  Treg frequency (CD4+CD25+Foxp3+ Treg cells as percentage of cells not treated with TGFβ): 480%
[1]; 300 nM
  Treg frequency (CD4+CD25+Foxp3+ Treg cells as percentage of cells not treated with TGFβ): 342%
[1]; 3000 nM
  Treg frequency (CD4+CD25+Foxp3+ Treg cells as percentage of cells not treated with TGFβ): 126%
[2]
  p-SMAD2 levels at 24 hours post drug administration: rose back to baseline levels
  inhibition at 75 mg/kg: 92.3%
KGN cells (FOXL2 C134W)
  sensitivity of KGN cells relative to COV434 cells: > 70 fold
KGN cells (FOXL2 C134W); Homo sapiens, 144 h, KGN cells, 6 days
  IC50: 0.14 µM
[3]
  IC50: > 10 µM
[4]; 300 nM + TGFβ 1 ng/mL
  TAGLN, Lamp5 and TGFβ1 expression: returned to baseline
  decrease of FAP, SDC1 and Col1A2 expression from baseline: 20-30%
[4]; 30 and 300 nM + TGFβ 1 ng/mL, 24 hours, all genes except CD9
  TGFβ-induced upregulation of CAF gene expression: dose dependently reversed
4T1-luc tumors; [8]
  tumor growth inhibition (TGI) compared to vehicle: did not result in significant TGI
4T1-luc tumors; [9]
  tumor growth inhibition (TGI) compared to vehicle: 38%
4T1-luc tumors; EX-11 at 150 mg/kg where given
  ex vivo luminescence of liver (metastasis) compared to vehicle: stronger reduction in luminescence
[5]; 30 nM, 300 nM + 1 ng/mL TGFβ
  HLA class I expression repressed by TGFβ stimulation: reversed
[5]; absence of TGFβ
  increase of HLA class I expression: up to 2 fold
EMT6 tumors [6]
  tumor volume compared to vehicle: did not show efficacy compared to vehicle
EMT6 tumors [7]; [8]
  tumor growth inhibition (TGI) compared to vehicle: did not result in significant TGI
EMT6 tumors [7]; [9]
  tumor growth inhibition (TGI) compared to vehicle: 37%
EMT6 tumors [7]; EX-11 at 150 mpk where given
  Mean survival: 25 days
EMT6 tumors [7]; all groups receiving EX-11 vs vehicle or checkpoint antibody single agent
  tumor pliability: substantially more pliable
Cloudman S91 melanoma
  survival compared with the vehicle control: did not exhibit an increase in survival

## Cc1cccc2c(Nc3ccnc(Nc4ccc(N5CCOCC5)cc4)n3)cnnc12 [EX-10, N4-(8-methylcinnolin-4-yl)-N2-(4-morpholino-phenyl)-pyrimidine-2,4-diamine]
[2]
  p-SMAD2 levels at 24 hours post drug administration: rose back to baseline levels
  inhibition at 75 mg/kg: 74.3%
